The results in this text go back to US8987258B2 (priority 2008, dated 2015).

The experiment has as its target T1, SIRT1 (Homo sapiens, UniProt Q96EB6).
T1 sequence (Q96EB6 1-747): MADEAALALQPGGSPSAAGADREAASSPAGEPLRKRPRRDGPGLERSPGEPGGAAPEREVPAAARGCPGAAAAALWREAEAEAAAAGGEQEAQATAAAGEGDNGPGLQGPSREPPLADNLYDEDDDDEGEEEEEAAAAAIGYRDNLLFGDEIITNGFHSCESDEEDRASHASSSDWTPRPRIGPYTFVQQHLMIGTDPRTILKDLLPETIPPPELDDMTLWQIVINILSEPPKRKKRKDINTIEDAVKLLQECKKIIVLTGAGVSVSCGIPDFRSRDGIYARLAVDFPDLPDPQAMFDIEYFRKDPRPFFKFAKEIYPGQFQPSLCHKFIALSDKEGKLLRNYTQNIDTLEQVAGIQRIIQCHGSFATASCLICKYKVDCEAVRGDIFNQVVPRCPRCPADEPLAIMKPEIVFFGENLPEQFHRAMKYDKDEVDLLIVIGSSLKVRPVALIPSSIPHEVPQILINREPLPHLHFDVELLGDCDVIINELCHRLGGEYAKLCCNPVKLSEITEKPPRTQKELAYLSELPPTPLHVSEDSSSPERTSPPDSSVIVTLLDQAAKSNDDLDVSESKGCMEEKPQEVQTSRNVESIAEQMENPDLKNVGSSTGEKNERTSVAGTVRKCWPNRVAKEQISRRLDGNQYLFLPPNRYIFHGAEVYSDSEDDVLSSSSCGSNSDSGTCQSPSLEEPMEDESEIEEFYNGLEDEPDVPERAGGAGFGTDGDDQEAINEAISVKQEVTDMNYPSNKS
In words: Mass spectrometry based SIRT1 deacetylase activation assay. In kind it is biochemical. The following applies: for EC1.5 μM: 0.5 μM peptide substrate, 120 μM βNAD+, 10 nM SIRT1, 25 min, 25° C.; for Emax: 25 min, mass spectrometry assay, read-out: % Fold Act. (percent maximum fold activation). The source says: A mass spectrometry based assay was used to identify modulators of SIRT1 activity. The mass spectrometry based assay utilizes a peptide having 20 amino acid residues as follows: Ac-EE-K(biotin)-GQSTSSHSK(Ac)NleSTEG-K(5TMR)-EE-NH2 (SEQ ID NO: 1) wherein K(Ac) is an acetylated lysine residue and Nle is a norleucine. The peptide is labeled with the fluorophore 5TMR (excitation 540 nm/emission 580 nm) at the C-terminus. The sequence of the peptide substrate is based on p53 with several modifications. In addition, the methionine residue naturally present in the sequence was replaced with the norleucine because the methionine may be susceptible to oxidation during synthesis and purification.
The mass spectrometry assay is conducted as follows: 0.5 μM peptide substrate and 120 μM βNAD^+ is incubated with 10 nM SIRT1 for 25 minutes at 25° C. in a reaction buffer (50 mM Tris-acetate pH 8, 137 mM NaCl, 2.7 mM KCl, 1 mM MgCl2, 5 mM DTT, 0.05% BSA). Test compounds may be added to the reaction as described above. […] After the 25 minute incubation with SIRT1, 10 μL of 10% formic acid is added to stop the reaction. Reactions are sealed and frozen for later mass spec analysis. Determination of the mass of the substrate peptide allows for precise determination of the degree of acetylation (i.e. starting material) as compared to deacetylated peptide (product).
A control for inhibition of sirtuin activity is conducted by adding 1 μL of 500 mM nicotinamide as a negative control at the start of the reaction (e.g., permits determination of maximum sirtuin inhibition). A control for activation of sirtuin activity is conducted using 10 nM of sirtuin protein, with 1 μL of DMSO in place of compound, to determine the amount of deacetylation of the substrate at a given timepoint within the linear range of the assay. This timepoint is the same as that used for test compounds and, within the linear range, the endpoint represents a change in velocity.
For the above assay, SIRT1 protein was expressed and purified as follows. […] The protein was expressed by induction with 1 mM IPTG as an N-terminal His-tag fusion protein at 18° C. overnight and harvested at 30,000×g. Cells were lysed with lysozyme in lysis buffer (50 mM Tris-HCl, 2 mM Tris[2-carboxyethyl]phosphine (TCEP), 10 μM ZnCl2, 200 mM NaCl) and further treated with sonication for 10 min for complete lysis. The protein was purified over a Ni-NTA column (Amersham) and fractions containing pure protein were pooled, concentrated and run over a sizing column (Sephadex S200 26/60 global). The peak containing soluble protein was collected and run on an Ion-exchange column (MonoQ). Gradient elution (200 mM-500 mM NaCl) yielded pure protein. This protein was concentrated and dialyzed against dialysis buffer (20 mM Tris-HCl, 2 mM TCEP) overnight. The protein was aliquoted and frozen at −80° C. until further use.

Take `O=C(Nc1cccc2c(=O)cc(-c3ccccc3C(F)(F)F)oc12)c1cocn1` [Compound 272]: the “EC1.5 μM” value is “B (EC1.5 1-25 μM)” and the Emax is greater than 200%.

With `Cc1ccccc1-c1cc(=O)c2cccc(NC(=O)c3cnccn3)c2o1` [Compound 273, N-(4-oxo-2-o-tolyl-4H-chromen-8-yl)pyrazine-2-carboxamide], the “EC1.5 μM” value is given as “A (EC1-5<1.0)” and the Emax was greater than 200%.

Turning to `Cc1ccccc1-c1cc(=O)c2cccc(NC(=O)c3cscn3)c2o1` [Compound 274], the “EC1.5 μM” value was “C (EC1.5>25 μM)” and the Emax was less than 200%.

In the case of `Cc1cnc(NC(=O)c2cccc3c(=O)cc(-c4ccccc4OC(F)(F)F)oc23)s1` [Compound 275], the “EC1.5 μM” value was “C (EC1.5>25 μM)” and the Emax is less than 200%.

Take `Cc1cnc(NC(=O)c2cccc3c(=O)cc(-c4ccccc4C(F)(F)F)oc23)s1` [Compound 276]: the “EC1.5 μM” value is “C (EC1.5>25 μM)” and the Emax was less than 200%.

In the case of `Cn1cncc1C(=O)Nc1cccc2c(=O)cc(-c3ccccc3C(F)(F)F)oc12` [Compound 277], the “EC1.5 μM” value is on record as “B (EC1.5 1-25 μM)” and the Emax was greater than 200%.

`O=C(Nc1cccc2c(=O)cc(-c3ccccc3F)oc12)c1cnccn1` [Compound 278]: the “EC1.5 μM” value was “C (EC1.5>25 μM)” and the Emax was less than 200%.

Turning to `O=C(Nc1cccc2c(=O)cc(-c3ccccc3F)oc12)c1cscn1` [Compound 279], the “EC1.5 μM” value is “C (EC1.5>25 μM)” and the Emax is less than 200%.

With `O=C(Nc1cccc2c(=O)cc(-c3ccccc3Cl)oc12)c1cnccn1` [Compound 280], the “EC1.5 μM” value was “A (EC1-5<1.0)” and the Emax was greater than 200%.

In the case of `O=C(Nc1cccc2c(=O)cc(-c3ccccc3Cl)oc12)c1cscn1` [Compound 281], the “EC1.5 μM” value was “A (EC1-5<1.0)” and the Emax is greater than 200%.

Turning to `O=C(Nc1cccc2c(=O)cc(-c3ccccc3C(F)F)oc12)c1cnccn1` [Compound 282], the “EC1.5 μM” value is listed as “A (EC1-5<1.0)” and the Emax is greater than 200%.

With `O=C(Nc1cccc2c(=O)cc(-c3ccccc3C(F)F)oc12)c1cscn1` [Compound 283], the “EC1.5 μM” value was “A (EC1-5<1.0)” and the Emax was greater than 200%.

Turning to `Cc1cnc(NC(=O)c2cccc3c(=O)cc(-c4ccccc4C(F)F)oc23)s1` [Compound 284], the “EC1.5 μM” value was “C (EC1.5>25 μM)” and the Emax is less than 200%.

Take `Cc1cnc(NC(=O)c2cccc3c(=O)cc(-c4ccccc4C(C)C)oc23)s1` [Compound 285]: the “EC1.5 μM” value is listed as “C (EC1.5>25 μM)” and the Emax is less than 200%.

For `CC(C)c1ccccc1-c1cc(=O)c2cccc(NC(=O)c3cnccn3)c2o1` [Compound 286], the “EC1.5 μM” value is reported as “A (EC1-5<1.0)” and the Emax was greater than 200%.

On to `CC(C)c1ccccc1-c1cc(=O)c2cccc(NC(=O)c3cscn3)c2o1` [Compound 287], for which the “EC1.5 μM” value is “B (EC1.5 1-25 μM)” and the Emax was greater than 200%.

`O=C(Nc1cccc2c(=O)cc(-c3cccc(F)c3F)oc12)c1cnccn1` [Compound 288]: the “EC1.5 μM” value is recorded as “B (EC1.5 1-25 μM)” and the Emax is less than 200%.

For `O=C(Nc1cccc2c(=O)cc(-c3cccc(F)c3F)oc12)c1cscn1` [Compound 289], the “EC1.5 μM” value is “C (EC1.5>25 μM)” and the Emax was less than 200%.

Consider `O=C(Nc1cccc2c(=O)cc(-c3c(F)cccc3F)oc12)c1cnccn1` [Compound 290], for which the “EC1.5 μM” value was “C (EC1.5>25 μM)” and the Emax is less than 200%.

For the molecule `O=C(Nc1cccc2c(=O)cc(-c3c(F)cccc3F)oc12)c1cscn1` [Compound 291], the “EC1.5 μM” value was “B (EC1.5 1-25 μM)” and the Emax is less than 200%.

With `O=C(Nc1cccc2c(=O)cc(-c3cc(F)ccc3F)oc12)c1cnccn1` [Compound 292], the “EC1.5 μM” value was “C (EC1.5>25 μM)” and the Emax was less than 200%.

In the case of `O=C(Nc1cccc2c(=O)cc(-c3cc(F)ccc3F)oc12)c1cscn1` [Compound 293], the “EC1.5 μM” value is on record as “C (EC1.5>25 μM)” and the Emax was less than 200%.

For the molecule `Cc1cnc(NC(=O)c2cccc3c(=O)cc(-c4ccccc4OC(F)F)oc23)s1` [Compound 294], the “EC1.5 μM” value was “B (EC1.5 1-25 μM)” and the Emax is less than 200%.

As to `Cc1cnc(NC(=O)c2cccc3c(=O)cc(-c4cccc(F)c4F)oc23)s1` [Compound 295], the “EC1.5 μM” value is on record as “C (EC1.5>25 μM)” and the Emax was less than 200%.

`O=C(Nc1cccc2c(=O)cc(-c3c(F)cccc3Cl)oc12)c1cnccn1` [Compound 296]: the “EC1.5 μM” value is “A (EC1-5<1.0)” and the Emax was greater than 200%.

Consider `O=C(Nc1cccc2c(=O)cc(-c3c(F)cccc3Cl)oc12)c1cscn1` [Compound 297], for which the “EC1.5 μM” value is recorded as “B (EC1.5 1-25 μM)” and the Emax is greater than 200%.

As to `O=C(Nc1cccc2c(=O)cc(-c3cccc(F)c3Cl)oc12)c1cnccn1` [Compound 298], the “EC1.5 μM” value is “B (EC1.5 1-25 μM)” and the Emax was less than 200%.

In the case of `O=C(Nc1cccc2c(=O)cc(-c3cccc(F)c3Cl)oc12)c1cscn1` [Compound 299], the “EC1.5 μM” value is given as “C (EC1.5>25 μM)” and the Emax is less than 200%.

For `O=C(Nc1cccc2c(=O)cc(-c3cc(F)ccc3Cl)oc12)c1cnccn1` [Compound 300], the “EC1.5 μM” value is “C (EC1.5>25 μM)” and the Emax is less than 200%.

Take `O=C(Nc1cccc2c(=O)cc(-c3cc(F)ccc3Cl)oc12)c1cscn1` [Compound 301]: the “EC1.5 μM” value is on record as “C (EC1.5>25 μM)” and the Emax was less than 200%.

For `O=C(Nc1cccc2c(=O)cc(-c3c(Cl)cccc3Cl)oc12)c1cnccn1` [Compound 302], the “EC1.5 μM” value was “B (EC1.5 1-25 μM)” and the Emax is greater than 200%.

Turning to `O=C(Nc1cccc2c(=O)cc(-c3c(Cl)cccc3Cl)oc12)c1cscn1` [Compound 303], the “EC1.5 μM” value is “B (EC1.5 1-25 μM)” and the Emax is greater than 200%.

In the case of `Cc1cnc(NC(=O)c2cccc3c(=O)cc(-c4ccccc4S(C)(=O)=O)oc23)s1` [Compound 304], the “EC1.5 μM” value is recorded as “C (EC1.5>25 μM)” and the Emax is less than 200%.

Turning to `Cc1cnc(NC(=O)c2cccc3c(=O)cc(-c4cccnc4C(F)(F)F)oc23)s1` [Compound 305, N-(5-methylthiazol-2-yl)-4-oxo-2-(2-(trifluoromethyl)pyridin-3-yl)-4H-chromene-8-carboxamide], the “EC1.5 μM” value is reported as “C (EC1.5>25 μM)” and the Emax was less than 200%.

As to `O=C(Nc1cccc2c(=O)cc(-c3cccnc3C(F)(F)F)oc12)c1cnccn1` [Compound 306, N-(4-oxo-2-(2-(trifluoromethyl)pyridin-3-yl)-4H-chromen-8-yl)pyrazine-2-carboxamide], the “EC1.5 μM” value is on record as “B (EC1.5 1-25 μM)” and the Emax was greater than 200%.

With `O=C(Nc1cccc2c(=O)cc(-c3cccnc3C(F)(F)F)oc12)c1cscn1` [Compound 307], the “EC1.5 μM” value is recorded as “A (EC1-5<1.0)” and the Emax was greater than 200%.
